IC50 data for 21 compounds are collected here from patent US11446287B2, “Compounds and methods for EP300 or CBP modulation and indications therefor” (Opna Immuno-Oncology SA, priority 2019, dated 2022).

This assay addresses T1, Recombinant human BRD4 containing dual bromodomains (BRD4-BD12 (1-477)) (Homo sapiens, UniProt O60885).
T1 construct: Recombinant human BRD4 containing dual bromodomains (BRD4-BD12 (1-477)); made in house; host or cells: E. coli BL21-CodonPlus (DE3), modified pET vector
The assay is described as follows: BRD4 Alphascreen binding assay. The essentials: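 AlphaScreen proximity between Ni-chelate-bound BRD4-BD12 (1-477) and streptavidin-captured H4 K5/K8/K12/K16-acetyl peptide measured after 1 h room-temperature compound incubation and 30 min with 7.5 μg/ml beads. Buffer: 50 mM HEPES pH 7.5, 50 mM NaCl, 0.01% BSA, 0.01% Triton X-100; data plate-normalized and four-parameter fit for IC50.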

Consider `Cc1noc(C)c1-c1cnc2c(c1)c(-c1c(Cl)cc(C(=O)O)cc1OC1CCC1)cn2C1CCOCC1` [P-0358, 3-chloro-5-cyclobutoxy-4-(5-(3,5-dimethylisoxazol-4-yl)-1-(tetrahydro-2H-pyran-4-yl)-1H-pyrrolo[2,3-b]pyridin-3-yl)benzoic acid], for which the IC50 lay within 1 to 8 µM. On to `Cc1noc(C)c1-c1cnc2c(c1)c(-c1c(Cl)cc(C(=O)O)cc1OCC(F)F)cn2C1CCOCC1` [P-0359, 3-chloro-5-(2,2-difluoroethoxy)-4-(5-(3,5-dimethylisoxazol-4-yl)-1-(tetrahydro-2H-pyran-4-yl)-1H-pyrrolo[2,3-b]pyridin-3-yl)benzoic acid], for which the IC50 is 8 to 1000 µM. Turning to `CCOc1cc(C(=O)O)c(F)cc1-c1cn([C@H]2CCOC2)c2ncc(-c3c(C)noc3C)cc12` [P-0360, (S)-4-(5-(3,5-dimethylisoxazol-4-yl)-1-(tetrahydrofuran-3-yl)-1H-pyrrolo[2,3-b]pyridin-3-yl)-5-ethoxy-2-fluorobenzoic acid], the IC50 is 8 to 1000 µM. Take `Cc1noc(C)c1-c1cnc2c(c1)c(-c1c(Cl)cc(C(=O)O)cc1OC1CCC1)cn2[C@H]1CCOC1` [P-0361, (S)-3-chloro-5-cyclobutoxy-4-(5-(3,5-dimethylisoxazol-4-yl)-1-(tetrahydrofuran-3-yl)-1H-pyrrolo[2,3-b]pyridin-3-yl)benzoic acid]: the IC50 was in the range of 8 to 1000 µM. Regarding `COc1cc(C(=O)O)ncc1-c1cn(C2CCOCC2)c2ncc(-c3c(C)noc3C)cc12` [P-0362, 5-(5-(3,5-dimethylisoxazol-4-yl)-1-(tetrahydro-2H-pyran-4-yl)-1H-pyrrolo[2,3-b]pyridin-3-yl)-4-methoxypicolinic acid], the IC50 fell in the range of 0.0001 to 1 µM. Take `Cc1noc(C)c1-c1cnc2c(c1)c(-c1c(Cl)cc(C(=O)O)cc1OC1CC1)cn2C(C1CC1)C1CC1` [P-0363, 3-chloro-5-cyclopropoxy-4-(1-(dicyclopropylmethyl)-5-(3,5-dimethylisoxazol-4-yl)-1H-pyrrolo[2,3-b]pyridin-3-yl)benzoic acid]: the IC50 lay within 1 to 8 µM.

`Cc1noc(C)c1-c1cnc2c(c1)c(-c1ccc(C(=O)O)cc1OC(F)(F)F)cn2CC1(C#N)CCC1` [P-0364, 4-(1-((1-cyanocyclobutyl)methyl)-5-(3,5-dimethylisoxazol-4-yl)-1H-pyrrolo[2,3-b]pyridin-3-yl)-3-(trifluoromethoxy)benzoic acid]: the IC50 fell in the range of 1 to 8 µM. Consider `Cc1nn(CC(C)(C)O)cc1-n1cc(-c2ccc(C(=O)O)cc2OC(F)(F)F)c2cc(-c3c(C)noc3C)cnc21` [P-0365, 4-(5-(3,5-dimethylisoxazol-4-yl)-1-(1-(2-hydroxy-2-methylpropyl)-3-methyl-1H-pyrazol-4-yl)-1H-pyrrolo[2,3-b]pyridin-3-yl)-3-(trifluoromethoxy)benzoic acid], for which the IC50 lay in the range of 1 to 8 µM. As for `Cc1nn(CC(=O)N(C)C)cc1-n1cc(-c2ccc(C(=O)O)cc2OC(F)(F)F)c2cc(-c3c(C)noc3C)cnc21` [P-0366, 4-(1-(1-(2-(dimethylamino)-2-oxoethyl)-3-methyl-1H-pyrazol-4-yl)-5-(3,5-dimethylisoxazol-4-yl)-1H-pyrrolo[2,3-b]pyridin-3-yl)-3-(trifluoromethoxy)benzoic acid], the IC50 was in the range of 8 to 1000 µM. Turning to `Cc1cc(C(=O)O)cc(OCC(F)F)c1-c1cn(C2CCOCC2)c2ncc(-c3c(C)noc3C)cc12` [P-0367, 3-(2,2-difluoroethoxy)-4-(5-(3,5-dimethylisoxazol-4-yl)-1-(tetrahydro-2H-pyran-4-yl)-1H-pyrrolo[2,3-b]pyridin-3-yl)-5-methylbenzoic acid], the IC50 fell in the range of 1 to 8 µM.

With `COc1nc(C(=O)O)ccc1-c1cn(C2CCOCC2)c2ncc(-c3c(C)noc3C)cc12` [P-0368, 5-(5-(3,5-dimethylisoxazol-4-yl)-1-(tetrahydro-2H-pyran-4-yl)-1H-pyrrolo[2,3-b]pyridin-3-yl)-6-methoxypicolinic acid], the IC50 was in the range of 8 to 1000 µM. Consider `Cc1noc(C)c1-c1cnc2c(c1)c(-c1c(F)cc(C(=O)O)cc1OC(C)C)cn2C(C1CC1)C1CC1` [P-0369, 4-(1-(dicyclopropylmethyl)-5-(3,5-dimethylisoxazol-4-yl)-1H-pyrrolo[2,3-b]pyridin-3-yl)-3-fluoro-5-isopropoxybenzoic acid], for which the IC50 lay within 1 to 8 µM.

As for `CCOc1cc(C(=O)O)cc(Cl)c1-c1cn(C(C2CC2)C2CC2)c2ncc(-c3c(C)noc3C)cc12` [P-0370, 3-chloro-4-(1-(dicyclopropylmethyl)-5-(3,5-dimethylisoxazol-4-yl)-1H-pyrrolo[2,3-b]pyridin-3-yl)-5-ethoxybenzoic acid], the IC50 lay within 1 to 8 µM. On to `CCOc1cc(C(=O)O)cc(Cl)c1-c1cn(C2CCOCC2)c2ncc(-c3c(C)noc3C)cc12` [P-0371, 3-chloro-4-(5-(3,5-dimethylisoxazol-4-yl)-1-(tetrahydro-2H-pyran-4-yl)-1H-pyrrolo[2,3-b]pyridin-3-yl)-5-ethoxybenzoic acid], for which the IC50 was 1 to 8 µM. As to `Cc1noc(C)c1-c1cnc2c(c1)c(-c1c(Cl)cc(C(=O)O)cc1OC(C)C)cn2C1CCOCC1` [P-0372, 3-chloro-4-(5-(3,5-dimethylisoxazol-4-yl)-1-(tetrahydro-2H-pyran-4-yl)-1H-pyrrolo[2,3-b]pyridin-3-yl)-5-isopropoxybenzoic acid], the IC50 is 1 to 8 µM. Turning to `CCOc1cc(C(=O)O)nc(OCC)c1-c1cn(C2CCOCC2)c2ncc(-c3c(C)noc3C)cc12` [P-0373, 5-(5-(3,5-dimethylisoxazol-4-yl)-1-(tetrahydro-2H-pyran-4-yl)-1H-pyrrolo[2,3-b]pyridin-3-yl)-4,6-diethoxypicolinic acid], the IC50 was 8 to 1000 µM.

For the compound `CCOc1cc(C(=O)O)c(F)c(OCC)c1-c1cn(C2CCOCC2)c2ncc(-c3c(C)noc3C)cc12` [P-0374, 4-(5-(3,5-dimethylisoxazol-4-yl)-1-(tetrahydro-2H-pyran-4-yl)-1H-pyrrolo[2,3-b]pyridin-3-yl)-3,5-diethoxy-2-fluorobenzoic acid], the IC50 lay in the range of 8 to 1000 µM. On to `CCOc1cc(C(=O)O)c(F)cc1-c1cn(C2CCOCC2)c2ncc(-c3c(C)noc3C)cc12` [P-0375, 4-(5-(3,5-dimethylisoxazol-4-yl)-1-(tetrahydro-2H-pyran-4-yl)-1H-pyrrolo[2,3-b]pyridin-3-yl)-5-ethoxy-2-fluorobenzoic acid], for which the IC50 fell in the range of 8 to 1000 µM. As to `CCOc1nc(C(=O)O)ccc1-c1cn(C2CCOCC2)c2ncc(-c3c(C)noc3C)cc12` [P-0376, 5-(5-(3,5-dimethylisoxazol-4-yl)-1-(tetrahydro-2H-pyran-4-yl)-1H-pyrrolo[2,3-b]pyridin-3-yl)-6-ethoxypicolinic acid], the IC50 was 8 to 1000 µM. The figure for `CCOc1cc(C(=O)O)c(F)cc1-c1cn(-c2ccccc2F)c2ncc(-c3c(C)noc3C)cc12` [P-0377, 4-(5-(3,5-dimethylisoxazol-4-yl)-1-(2-fluorophenyl)-1H-pyrrolo[2,3-b]pyridin-3-yl)-5-ethoxy-2-fluorobenzoic acid] is 1 to 8 µM; for `Cc1noc(C)c1-c1cnc2c(c1)c(-c1ccc(C(=O)O)cc1OC(F)(F)F)cn2C1CCC1` [P-0378, 4-(1-cyclobutyl-5-(3,5-dimethylisoxazol-4-yl)-1H-pyrrolo[2,3-b]pyridin-3-yl)-3-(trifluoromethoxy)benzoic acid] it is 0.0001 to 1 µM.
